Data: patent US11872210B2, “Thiol isomerases inhibitors and use thereof” (WESTERN NEW ENGLAND UNIVERSITY, priority 2017, dated 2024)

How the values were obtained:
[1] = test system: platelets (fibrinogen receptor αIIbβ3); assay: Fibrinogen binding to αIIbβ3 by flow cytometry; type: cell-based, human
Procedure: Human Platelet Preparation: 50 mL of blood was drawn from drug free, consenting individuals, into a syringe containing 5 mL sodium citrate (4% w/v) and 7.5 mL warmed ACD (85 mM sodium citrate, 71 mM citric acid and 110 mM glucose). Blood was centrifuged at 102 g for 20 minutes to obtain platelet-rich plasma (PRP), which was then decanted and 104 prostacyclin (PGI2 125 μg/mL, solubilized in ethanol) added. Platelets were pelleted by centrifugation at 1413 g for 10 minutes, platelet poor plasma was discarded and the pellet resuspended in 25 mL Tyrode's-HEPES buffer (134 mM NaCl, 2.9 mM KCl, 0.34 mM Na2HPO4, 12 mM NaHCO3, 20 mM HEPES, 1 mM MgCl2 and 5 mM glucose pH 7.3), 3 mL of ACD and 10 μL PGI2 were added and then following centrifugation at 1413 g for 10 minutes, the platelet pellet was re-suspended to the appropriate cell density using Tyrode's buffer. Platelets were rested for 30 minutes at 30° C. to allow platelet responses to recover.
Flow Cytometry: 5 μL platelets (2×10^8 cells/mL) was added to 42 μL HEPES-buffered saline with 1 mM Ca2+. To this, 0.5 μL zafirlukast (0.6 μM-10 μM) or montelukast (0.6 μM-10 μM) or vehicle (0.1% (v/v) DMSO) was added and incubated for 5 minutes. 1 μL anti-human CD62p (1:500 dilution) and 1 μL anti-fibrinogen FITC conjugate (1:500 dilution) or 2 μL of anti-PAC-1 antibody were added to samples. Platelets were treated with 5 μL CRP-XL (1 ug/mL) or 5 μL Tyrode's for 20 minutes in the dark. Samples were then fixed with 450 μL of 0.2% (v/v) paraformaldehyde and analyzed on an accuri C6 flow cytometer (BD Biosciences, UK), with the threshold set to 20,000. Platelet populations were gated and 10,000 events recorded.

whole human blood = assay: Thrombus formation under flow (in vitro, collagen coated Cellix capillaries); type: cell-based
Procedure: Thrombus Formation under flow: Human blood was drawn into 3.2% (w/v) sodium citrate and labelled with 2 μM DIOC-6 for an hour. A […] biochip was coated with 1 μL Collagen (100 μg/mL) for 1 hour. Blood was then incubated with vehicle (0.1% (v/v) DMSO) or zafirlukast (10 μM) for 5 minutes prior to perfusion over collagen coated Cellix microfluidic cells at a shear rate of 20 dynes/cm^2. Images were recorded for 10 minutes perfusion by confocal microscopy (Nikon Al Microscope, Nikon, Japan) and analyzed using ImageJ. Whole human blood labelled with the lipophilic dye DIOC-6 was incubated with zafirlukast (10 μM) or vehicle (0.1% (v/v) DMSO) for 5 minutes before perfusion over […] capillaries coated with collagen (100 μg/mL) at an arterial shear rate of 20 dynes/cm^2. Images were recorded for 10 minutes using confocal microscopy and analyzed using ImageJ. The median fluorescence intensity was determined and compared to max intensity response; the more intense the fluorescence the larger the volume of thrombus formed.

[2] = test system: EGFR activation and downstream signaling (STAT3 phosphorylation); assay: Western blot of EGFR signaling in HCT116 cells; type: cell-based, human; conditions: 24 hours
Procedure: HCT116 (human colon cancer) cells were incubated with drug for 24 hours and total cellular extracts prepared. Protein levels were normalized, protein loaded on SDS-polyacrylamide gels and then electrophoresed before transferring to a PVDF membrane. The membranes were probed with primary antibodies of interest, followed by secondary antibodies conjugated with horseradish peroxidase.

ERp72 = molecular target: T1, ERp72 (Homo sapiens, UniProt P13667); assay: Insulin-based turbidometric assay of thiol isomerase inhibitory activity (ERp72); type: biochemical; conditions: insulin turbidity assay, 6 point dose curve
T1 construct: purchased AbCam (Cambridge Mass.)
T1 sequence (P13667 21-645): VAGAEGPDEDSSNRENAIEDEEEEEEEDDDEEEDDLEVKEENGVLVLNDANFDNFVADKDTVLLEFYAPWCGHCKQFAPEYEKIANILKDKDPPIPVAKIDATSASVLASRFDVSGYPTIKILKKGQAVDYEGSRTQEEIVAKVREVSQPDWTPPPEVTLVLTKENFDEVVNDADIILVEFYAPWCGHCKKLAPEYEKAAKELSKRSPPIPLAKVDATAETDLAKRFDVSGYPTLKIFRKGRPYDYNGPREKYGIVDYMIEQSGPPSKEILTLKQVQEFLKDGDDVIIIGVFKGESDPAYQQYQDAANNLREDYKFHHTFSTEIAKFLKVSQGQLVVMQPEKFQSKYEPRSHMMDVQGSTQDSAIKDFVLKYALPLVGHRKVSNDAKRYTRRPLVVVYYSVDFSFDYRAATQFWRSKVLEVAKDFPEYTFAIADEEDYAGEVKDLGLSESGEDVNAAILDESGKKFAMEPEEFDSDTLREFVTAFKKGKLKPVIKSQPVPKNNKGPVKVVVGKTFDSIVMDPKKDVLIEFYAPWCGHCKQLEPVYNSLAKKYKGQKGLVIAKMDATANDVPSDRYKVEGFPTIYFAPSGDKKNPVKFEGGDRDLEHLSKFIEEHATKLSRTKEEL
Source text: Recombinant thiol isomerases were purchased from AbCam (Cambridge Mass.), recombinant insulin (bovine), bacitracin, dithiothreitol (DTT) buffers and all other chemicals were purchased from Sigma Aldrich (St. Louis, Mo.; while 384 well clear bottom plates were purchased from Corning (Corning, N.Y.).
The catalytic reduction of insulin by thiol isomerases in the presence of DTT results in aggregation of insulin chains. The turbidity of insulin aggregation can be monitored spectrophotometrically at an optical density (OD) at 650 nm. This approach has been used by multiple groups to identify thiol isomerase inhibitors in either a kinetic or endpoint fashion. A final concentration of either 10 μg/mL PDI, 30 μg/mL ERp5, 10 μg/mL ERp72 or 10 μg/mL thioredoxin, 125 μM insulin and 2 mM ethylenediaminetetraacetic acid (EDTA) in 30 μL of 100 mM potassium phosphate buffer was added to each experimental well plate, while negative control wells lacked any thiol isomerase. Lead compounds were diluted in a 6 point dose curve and the turbidity of insulin aggregation was measured kinetically each minute for 75 minutes using a Spectramax M3 plate reader (Molecular Devices, Sunnyvale, Calif.) Specificity assay utilized the insulin turbidity assay as well.

COc1cc(C(=O)NS(=O)(=O)c2ccccc2C)ccc1Cc1cn(C)c2ccc(NC(=O)OC3CCCC3)cc12 [zafirlukast, 4-(5-cyclopentyloxycarbonylamino-1-methylindol-3-ylmethyl)-3-methoxy-N-o-tolylsulfonylbenzamide]
fibrinogen binding (fluorescence) ([1]; 10 μM, CRP-XL stimulated, vehicle 12520 Au): 3696 Au
inhibition at 10 µM ([1]; Homo sapiens, Platelet, 10 μM, CRP-XL stimulated): 64.5%
fibrinogen binding (in words) ([1]; lower concentrations (below 10 μM)): trend towards inhibition
final size of the thrombus (in words) (whole human blood; 10 μM, 10 minutes perfusion): significantly diminished compared to the vehicle
median fluorescence intensity (MFI) of thrombus (whole human blood; 10 μM, after 8 minutes of flow, 20 dynes/cm^2, vehicle 89.15): 74.86 Au
inhibition at 10 µM (whole human blood; Homo sapiens, arterial shear 20 dynes/cm^2, read-out: inhibition of median fluorescence intensity compared to vehicle): 14.2%
inhibition of EGFR activation and downstream signaling (STAT3 phosphorylation), in words [2]: almost complete inhibition
inhibitory range on ERp72 (ERp72): 10 to 300 µM
